# Results taken from patent US10906880B2, “Kind of isothiazole oxime ether-containing strobilurin derivatives and its preparation methods and application” (priority 2016, dated 2021).
# Like-named read-outs stand apart in the source and are kept apart here.
# Columns and labels:
# TMV [1] = assay: Anti-TMV activity on tobacco, induction mode (systemic acquired resistance); type: in vivo, tobacco mosaic virus; conditions: 100 μg/mL; for inhibition at 100 µg/mL: Tobacco mosaic virus, read-out: Anti-TMV activity inhibition, Induction effect
# Pellicularia sasakii = assay: Fungicide activity, mycelial growth inhibition on PDA plate; type: cell-based; conditions: for inhibition at 50 µg/mL: 50 μg/mL, P. sasakii, read-out: Fungicidal activity inhibition, PS
# [2] = system: Phytophthora infestans (Mont) de Bary; assay: microbe, parasite or virus in culture; type: cell-based; conditions: for inhibition at 50 µg/mL: Phytophthora infestans, read-out: Fungicidal activity inhibition, PI, 50 μg/mL, P. infestans (Mont.) de Bary; for Fungicidal activity inhibition, PI: 50 μg/mL, P. infestans (Mont.) de Bary
# Botrytis cinerea = assay: Fungicide activity, mycelial growth inhibition on PDA plate; type: cell-based; conditions: for inhibition at 50 µg/mL: Botrytis cinerea, read-out: Fungicidal activity inhibition, BC
# TMV [3] = assay: Anti-TMV activity on tobacco, curative mode; type: in vivo, tobacco mosaic virus; conditions: 100 μg/mL, tobacco; for inhibition at 100 µg/mL: Tobacco mosaic virus, read-out: Anti-TMV activity inhibition, Curative effect
# Rhizoctonia cerealis = assay: Fungicide activity, mycelial growth inhibition on PDA plate; type: cell-based; conditions: for inhibition at 50 µg/mL: Ceratobasidium cereale, read-out: Fungicidal activity inhibition, RC
# Alternaria solani = assay: as above; type: cell-based; conditions: for inhibition at 50 µg/mL: Alternaria solani, read-out: Fungicidal activity inhibition, AS
# TMV [4] = assay: Anti-TMV activity on tobacco, inactivation mode; type: in vivo, tobacco mosaic virus; conditions: 100 μg/mL; for inhibition at 100 µg/mL: Tobacco mosaic virus, read-out: Anti-TMV activity inhibition, Inactivation effect
# Physalospora piricola = assay: Fungicide activity, mycelial growth inhibition on PDA plate; type: cell-based; conditions: for inhibition at 50 µg/mL: 50 μg/mL, P. piricola, read-out: Fungicidal activity inhibition, PP
# TMV [5] = assay: Anti-TMV activity on tobacco, protection mode; type: in vivo, tobacco mosaic virus; conditions: 100 μg/mL; for inhibition at 100 µg/mL: Tobacco mosaic virus, read-out: Anti-TMV activity inhibition, Protection effect
# Sclerotinia sclerotiorum = assay: Fungicide activity, mycelial growth inhibition on PDA plate; type: cell-based; conditions: for inhibition at 50 µg/mL: Sclerotinia sclerotiorum, read-out: Fungicidal activity inhibition, SS
# Cercospora arachidicola = assay: as above; type: cell-based; conditions: for inhibition at 50 µg/mL: Mycosphaerella arachidis, read-out: Fungicidal activity inhibition, CA
# Gibberella zeae = assay: microbe, parasite or virus in culture; type: cell-based
SMILES,inhibition at 100 µg/mL (TMV [1]) [%],inhibition at 50 µg/mL (Pellicularia sasakii) [%],"inhibition at 50 µg/mL (Botrytis cinerea; 50 μg/mL, B. cinerea) [%]",inhibition at 100 µg/mL (TMV [3]) [%],"inhibition at 50 µg/mL (Rhizoctonia cerealis; 50 μg/mL, R. cerealis) [%]",inhibition at 50 µg/mL (Rhizoctonia cerealis) [%],"inhibition at 50 µg/mL (Alternaria solani; 50 μg/mL, A. solani) [%]",inhibition at 100 µg/mL (TMV [4]) [%],inhibition at 50 µg/mL (Physalospora piricola) [%],inhibition at 100 µg/mL (TMV [5]) [%],"inhibition at 50 µg/mL (Sclerotinia sclerotiorum; 50 μg/mL, S. sclerotiorum) [%]",inhibition at 50 µg/mL (Sclerotinia sclerotiorum) [%],"inhibition at 50 µg/mL (Cercospora arachidicola; 50 μg/mL, C. arachidicola) [%]","Fungicidal activity inhibition, PI [2] [%]",melting point [°C],inhibition at 50 µg/mL (Cercospora arachidicola) [%],other results
CO/N=C(/C(=O)NC1CC1)c1ccccc1CO/N=C(\N)c1snc(Cl)c1Cl [CL04-25B],18.6 ± 3.76,18.9,36.8,20.5 ± 1.84,85.4,> 50,21.3,0,22.8,19.6 ± 3.36,73.3,> 40,28,,,,inhibition at 50 µg/mL [2]: 33.3%
"CO/C=C(/C(=O)OC)c1ccccc1Oc1cc(Oc2ccccc2C#N)ncn1 [Azoxystrobin, reference compound]",,,,,,,,,,,,,,46.88,,,"Fungicidal activity inhibition, PS (Pellicularia sasakii): 80.77%; Fungicidal activity inhibition, BC (Botrytis cinerea): 91.18%; Fungicidal activity inhibition, RC (Rhizoctonia cerealis): 84.06%; Fungicidal activity inhibition, AS (Alternaria solani): 75.00%; Fungicidal activity inhibition, PP (Physalospora piricola): 100%; Fungicidal activity inhibition, SS (Sclerotinia sclerotiorum): 88.10%; Fungicidal activity inhibition, GZ (Gibberella zeae; 50 μg/mL, G. zeae): 71.43%; Fungicidal activity inhibition, CA (Cercospora arachidicola): 55.56%"
C#CCNC(=O)/C(=N/OC)c1ccccc1CO/N=C(\N)c1snc(Cl)c1Cl [CL04-25A],,46,42.1,,65.8,> 50,8.2,0,19.3,> 40,46.7,> 40,20,100,106 to 108,,
"N#Cc1ccccc1NC(=O)c1snc(Cl)c1Cl [Isotianil, reference compound]",,,,,,,,,,,,,,,,,"Anti-TMV activity inhibition, Induction effect (TMV [1]): 44.44 ± 5.18%; Anti-TMV activity inhibition, Curative effect (TMV [3]): 27.31 ± 2.12%; Anti-TMV activity inhibition, Inactivation effect (TMV [4]): 20.77 ± 7.30%; Anti-TMV activity inhibition, Protection effect (TMV [5]): 24.80 ± 5.85%"
"Nc1ccc(S(=O)(=O)Nc2nccs2)cc1 [SZG-7, reference compound]",79 ± 2.27,,,,,,,,,,,,,,,,
CO/N=C(/C(=O)NC1CC1)c1ccccc1CO/N=C(C)/C=C/c1snc(Cl)c1Cl [CL04-32C],16 ± 7.71,67.6,57.9,31.6 ± 3.91,70.7,> 50,47.5,> 30,71.9,19 ± 0.72,73.3,> 40,60,100,95 to 97,> 30,inhibition at 50 µg/mL (Botrytis cinerea): > 45%; inhibition at 50 µg/mL (Alternaria solani): > 30%
CO/N=C(/C(=O)OC)c1ccccc1CO/N=C(\C)c1snc(Cl)c1Cl [CL04-15A],,76.9,100,1.52 ± 0.62,85.5,> 50,47.1,,53,> 40,100,,50,,73 to 75,> 30,"inhibition at 50 µg/mL (Alternaria solani): > 30%; inhibition at 50 µg/mL (Gibberella zeae; Fusarium graminearum, read-out: Fungicidal activity inhibition, GZ, 50 μg/mL, G. zeae): > 30%"
CO/N=C(/C(=O)NC(C)(C)CSC)c1ccccc1CO/N=C(\C)c1snc(Cl)c1Cl [CL04-22E],12.7 ± 6.05,21.2,62.5,20.2 ± 5.58,76,> 50,27.3,> 30,42.9,22.7 ± 2.05,29.4,,45.8,,,> 30,inhibition at 50 µg/mL [2]: 28.6%; inhibition at 50 µg/mL (Botrytis cinerea): > 45%
"CSC(=O)c1cccc2nnsc12 [BTH, reference compound]",,,,,,,,,,,,,,,,,"Anti-TMV activity inhibition, Induction effect (TMV [1]): 78.00 ± 1.34%; Anti-TMV activity inhibition, Protection effect (TMV [5]): 78.10 ± 0.54%"
"Cc1ccc(NC(=O)c2snnc2C)cc1Cl [TDL, Tiadinil, reference compound]",65 ± 2,,,,,,,,,,,,,,,,
CO/N=C(/C(=O)NC1CC1)c1ccccc1CO/N=C(\C)c1snc(Cl)c1Cl [CL04-22C],,56.8,47.4,4.62 ± 0.55,61,> 50,27.9,4.44 ± 0.85,61.4,23.6 ± 0.57,80,> 40,44,100,115 to 117,> 30,inhibition at 50 µg/mL (Botrytis cinerea): > 45%
CO/N=C(/C(=O)OC)c1ccccc1CO/N=C(C)/C=C/c1snc(Cl)c1Cl [CL04-17],> 30,58.8,100,> 30,81.5,> 50,35.7,> 30,47.8,29.3 ± 1.31,86.7,> 40,50,,105 to 107,> 30,inhibition at 50 µg/mL [2]: > 40%; inhibition at 50 µg/mL (Alternaria solani): > 30%
